Laboratory results: ChEMBL document CHEMBL1137360, “Structure-activity relationships of a novel series of urotensin II analogues: identification of a urotensin II antagonist” (J Med Chem, 2006)
pEC50, pKi: −log10 of the molar value. Activity calls are given as the source filed them. No cut-off for these calls is given here. Positions of bridges follow the written chain, without caps; N, C: chain ends. Non-standard residues stand in square brackets, D forms with d. Residues, ends and D or L forms follow the SMILES beside them. Tyr(3-NO2) = N[C@@H](Cc1ccc(O)c([N+](=O)[O-])c1)C(=O)O; Phe(4-COOH) = N[C@@H](Cc1ccc(C(=O)O)cc1)C(=O)O; Phe(4-tBu) = CC(C)(C)c1ccc(C[C@H](N)C(=O)O)cc1; Tyr(3-I) = N[C@@H](Cc1ccc(O)c(I)c1)C(=O)O; Oic = O=C(O)[C@@H]1C[C@@H]2CCCC[C@@H]2N1; Phe(4-NH2) = Nc1ccc(C[C@H](N)C(=O)O)cc1; Bta = N[C@@H](Cc1csc2ccccc12)C(=O)O; 2Thi = N[C@@H](Cc1cccs1)C(=O)O; Cha = N[C@@H](CC1CCCCC1)C(=O)O; NMeD = CN[C@@H](CC(=O)O)C(=O)O; pGlu = O=C1CC[C@@H](C(=O)O)N1; Pen = CC(C)(S)[C@H](N)C(=O)O; Aib = CC(C)(N)C(=O)O

Assays:
Rattus norvegicus [1] = organism: Rattus norvegicus; test: Agonist activity in rat aortic ring contraction assay relative to 1 uM phenylephrine; type: functional, Aorta
[2] = target: T1, Urotensin-2 receptor (Rattus norvegicus) (UniProt P49684); test: Antagonist activity against 1 uM human urotensin-2-induced contraction of rat aortic ring; type: functional, tissue-based; conditions: Aorta
T1 sequence (whole entry): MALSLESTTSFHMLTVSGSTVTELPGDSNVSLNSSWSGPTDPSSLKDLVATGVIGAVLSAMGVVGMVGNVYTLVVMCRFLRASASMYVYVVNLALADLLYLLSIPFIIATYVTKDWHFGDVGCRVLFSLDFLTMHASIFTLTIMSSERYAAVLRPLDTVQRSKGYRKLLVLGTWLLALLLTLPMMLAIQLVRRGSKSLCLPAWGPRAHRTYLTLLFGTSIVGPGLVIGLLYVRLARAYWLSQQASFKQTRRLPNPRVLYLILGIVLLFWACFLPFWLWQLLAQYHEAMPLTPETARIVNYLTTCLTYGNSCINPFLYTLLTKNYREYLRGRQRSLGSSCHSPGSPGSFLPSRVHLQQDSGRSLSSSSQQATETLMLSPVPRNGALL

Rattus norvegicus [3] = organism: Rattus norvegicus; test: Agonist activity in rat aortic ring contraction assay; type: functional; conditions: Aorta
Urotensin-2 receptor = target: T2, Urotensin-2 receptor (Homo sapiens, UniProt Q9UKP6); test: Displacement of [125I]human urotensin-2 from human GPR14 transfected in CHO cells; type: cell-based; conditions: for Log Ki: cho
T2 sequence (Q9UKP6 whole entry): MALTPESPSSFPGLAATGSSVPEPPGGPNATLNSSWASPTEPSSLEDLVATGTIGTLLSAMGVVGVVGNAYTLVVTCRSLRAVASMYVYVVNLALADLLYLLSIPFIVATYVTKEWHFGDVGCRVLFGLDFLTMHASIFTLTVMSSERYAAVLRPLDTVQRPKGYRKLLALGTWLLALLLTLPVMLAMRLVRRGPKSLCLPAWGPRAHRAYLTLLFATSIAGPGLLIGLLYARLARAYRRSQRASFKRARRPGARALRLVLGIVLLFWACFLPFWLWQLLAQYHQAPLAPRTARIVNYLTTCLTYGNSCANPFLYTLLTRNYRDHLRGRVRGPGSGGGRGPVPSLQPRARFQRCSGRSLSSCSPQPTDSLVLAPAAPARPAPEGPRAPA

| Compound | Activity (Rattus norvegicus [1]) | Activity [2] | pEC50 (Rattus norvegicus [3]) | pKi (Urotensin-2 receptor) | Log Ki (Urotensin-2 receptor) | Activity (Rattus norvegicus [1]; Aorta) |
| --- | --- | --- | --- | --- | --- | --- |
| CC(C)[C@H](NC(=O)[C@@H]1CSSC[C@H](NC(=O)[C@H](C)N)C(=O)N[C@@H](CC2CCCCC2)C(=O)N[C@@H](Cc2c[nH]c3ccccc23)C(=O)N[C@@H](CCCCN)C(=O)N[C@@H](Cc2ccc(O)cc2)C(=O)N1)C(=O)O (H-AC[Cha]WKYCV-OH; disulfide 2-7) | 36.9% | inactive | 6.03 | 6.58 | – | – |
| CC(C)[C@H](NC(=O)[C@@H]1CSSC[C@H](NC(=O)[C@@H](N)CC(=O)O)C(=O)N[C@@H](Cc2ccccc2)C(=O)N[C@@H](Cc2c[nH]c3ccccc23)C(=O)N[C@@H](CCCCN)C(=O)N[C@@H](Cc2ccc(C(=O)O)cc2)C(=O)N1)C(=O)O (H-DCFWK[Phe(4-COOH)]CV-OH; disulfide 2-7) | 79.3% | inactive | 5.77 | 7.13 | – | – |
| CC(C)[C@H](NC(=O)[C@@H]1CSSC[C@H](NC(=O)[C@@H](N)CC(=O)O)C(=O)N[C@@H](Cc2ccc(C(C)(C)C)cc2)C(=O)N[C@@H](Cc2c[nH]c3ccccc23)C(=O)N[C@@H](CCCCN)C(=O)N[C@@H](Cc2ccc(O)cc2)C(=O)N1)C(=O)O (H-DC[Phe(4-tBu)]WKYCV-OH; disulfide 2-7) [listing 1 of 2 here] | 76.7% | – | – | – | – | – |
| CC(C)[C@H](NC(=O)[C@@H]1CSSC[C@H](NC(=O)[C@@H](N)CC(=O)O)C(=O)N[C@@H](Cc2cccs2)C(=O)N[C@@H](Cc2c[nH]c3ccccc23)C(=O)N[C@@H](CCCCN)C(=O)N[C@@H](Cc2ccc(O)cc2)C(=O)N1)C(=O)O (H-DC[2Thi]WKYCV-OH; disulfide 2-7) [listing 1 of 2 here] | – | – | 8.05 | – | -8.54 | – |
| CC(C)[C@H](NC(=O)[C@@H]1CSSC[C@H](NC(=O)[C@@H](N)CCC(=O)O)C(=O)N[C@@H](Cc2ccccc2)C(=O)N[C@@H](Cc2c[nH]c3ccccc23)C(=O)N[C@@H](CCCCN)C(=O)N[C@@H](Cc2ccc(O)cc2)C(=O)N1)C(=O)O (H-ECFWKYCV-OH; disulfide 2-7) | 82.1% | inactive | 8.32 | 8.53 | – | – |
| CC(C)[C@H](NC(=O)[C@@H]1CSSC[C@H](NC(=O)[C@@H](N)CC(=O)O)C(=O)N2[C@@H](C[C@@H]3CCCC[C@@H]32)C(=O)N[C@@H](Cc2c[nH]c3ccccc23)C(=O)N[C@@H](CCCCN)C(=O)N[C@@H](Cc2ccc(O)cc2)C(=O)N1)C(=O)O (H-DC[Oic]WKYCV-OH; disulfide 2-7) | – | – | < 5.00 | – | < -5 | – |
| CC(C)[C@H](NC(=O)[C@@H]1CSSC[C@H](NC(=O)[C@@H](N)CC(=O)O)C(=O)N[C@@H](Cc2ccccc2)C(=O)N[C@@H](Cc2c[nH]c3ccccc23)C(=O)N[C@@H](CCCCN)C(=O)N[C@@H](Cc2ccc(O)cc2)C(=O)N1)C(=O)O (H-DCFWKYCV-OH; disulfide 2-7) | 102.1% | inactive | 8.30 | 8.91 | – | – |
| CC(C)[C@H](NC(=O)[C@@H]1CSSC[C@H](NC(=O)[C@@H](N)CC(=O)O)C(=O)N[C@@H](Cc2ccccc2)C(=O)N[C@@H](Cc2c[nH]c3ccccc23)C(=O)N[C@@H](CCCCN)C(=O)N[C@@H](Cc2ccc(O)c([N+](=O)[O-])c2)C(=O)N1)C(=O)O (H-DCFWK[Tyr(3-NO2)]CV-OH; disulfide 2-7) | 95% | inactive | 8.01 | 8.62 | – | – |
| CC(C)[C@H](NC(=O)[C@@H]1CSSC[C@H](NC(=O)[C@@H](N)CC(=O)O)C(=O)N[C@@H](Cc2ccccc2)C(=O)N[C@@H](Cc2c[nH]c3ccccc23)C(=O)N[C@@H](CCCCN)C(=O)N[C@@H](Cc2ccc(N)cc2)C(=O)N1)C(=O)O (H-DCFWK[Phe(4-NH2)]CV-OH; disulfide 2-7) | 97.7% | inactive | 6.37 | 8.00 | – | – |
| CC(C)[C@H](NC(=O)[C@@H]1CSSC[C@H](NC(=O)[C@@H](N)CC(=O)O)C(=O)N[C@@H](Cc2csc3ccccc23)C(=O)N[C@@H](Cc2c[nH]c3ccccc23)C(=O)N[C@@H](CCCCN)C(=O)N[C@@H](Cc2ccc(O)cc2)C(=O)N1)C(=O)O (H-DC[Bta]WKYCV-OH; disulfide 2-7) [listing 1 of 2 here] | – | – | 6.54 | – | -8.95 | – |
| CC(C)[C@H](NC(=O)[C@@H]1CSSC[C@H](NC(=O)[C@@H](N)CC(=O)O)C(=O)N[C@@H](Cc2csc3ccccc23)C(=O)N[C@@H](Cc2c[nH]c3ccccc23)C(=O)N[C@@H](CCCCN)C(=O)N[C@@H](Cc2ccc(O)cc2)C(=O)N1)C(=O)O (H-DC[Bta]WKYCV-OH; disulfide 2-7) [listing 2 of 2 here] | 73.8% | – | – | – | – | – |
| CC(C)[C@H](NC(=O)[C@@H]1CSSC[C@H](NC(=O)[C@@H](N)CC(=O)O)C(=O)N[C@@H](Cc2cccs2)C(=O)N[C@@H](Cc2c[nH]c3ccccc23)C(=O)N[C@@H](CCCCN)C(=O)N[C@@H](Cc2ccc(O)cc2)C(=O)N1)C(=O)O (H-DC[2Thi]WKYCV-OH; disulfide 2-7) [listing 2 of 2 here] | 94% | – | – | – | – | – |
| CC(C)[C@H](NC(=O)[C@@H]1CSSC[C@H](NC(=O)[C@@H]2CCC(=O)N2)C(=O)N[C@@H](Cc2ccccc2)C(=O)N[C@@H](Cc2c[nH]c3ccccc23)C(=O)N[C@@H](CCCCN)C(=O)N[C@@H](Cc2ccc(O)cc2)C(=O)N1)C(=O)O ([pGlu]CFWKYCV-OH; disulfide 2-7) | 98.6% | inactive | 8.23 | 9.04 | – | – |
| CC(C)[C@H](NC(=O)[C@@H]1CSSC[C@H](NC(=O)C(C)(C)N)C(=O)N[C@@H](Cc2ccccc2)C(=O)N[C@@H](Cc2c[nH]c3ccccc23)C(=O)N[C@@H](CCCCN)C(=O)N[C@@H](Cc2ccc(O)cc2)C(=O)N1)C(=O)O (H-[Aib]CFWKYCV-OH; disulfide 2-7) | 83.9% | inactive | 8.25 | 8.65 | – | – |
| CC(C)[C@H](NC(=O)[C@@H]1CSSC(C)(C)[C@H](NC(=O)[C@@H](N)CC(=O)O)C(=O)N[C@@H](CC2CCCCC2)C(=O)N[C@@H](Cc2c[nH]c3ccccc23)C(=O)N[C@@H](CCCCN)C(=O)N[C@@H](Cc2ccc(O)cc2)C(=O)N1)C(=O)O (H-D[Pen][Cha]WKYCV-OH; disulfide 2-7) | 14.8% | inactive | 5.72 | 6.81 | – | – |
| CC(C)[C@H](NC(=O)[C@@H]1CSSC[C@H](NC(=O)[C@@H](N)CC(=O)O)C(=O)N[C@H](CC2CCCCC2)C(=O)N[C@@H](Cc2c[nH]c3ccccc23)C(=O)N[C@@H](CCCCN)C(=O)N[C@@H](Cc2ccc(O)cc2)C(=O)N1)C(=O)O | – | inactive | < 5.00 | < 5.00 | – | inactive |
| CC(C)[C@H](NC(=O)[C@@H]1CSSC[C@H](NC(=O)[C@@H](N)CC(=O)O)C(=O)N[C@@H](Cc2ccccc2)C(=O)N[C@@H](Cc2c[nH]c3ccccc23)C(=O)N[C@@H](CCCCN)C(=O)N[C@@H](Cc2ccc(C(C)(C)C)cc2)C(=O)N1)C(=O)O (H-DCFWK[Phe(4-tBu)]CV-OH; disulfide 2-7) | 88.5% | inactive | 7.63 | 8.04 | – | – |
| CC(C)[C@H](NC(=O)[C@@H]1CSSC[C@H](NC(=O)[C@@H](N)CC(=O)O)C(=O)N[C@@H](Cc2ccc(C(C)(C)C)cc2)C(=O)N[C@@H](Cc2c[nH]c3ccccc23)C(=O)N[C@@H](CCCCN)C(=O)N[C@@H](Cc2ccc(O)cc2)C(=O)N1)C(=O)O (H-DC[Phe(4-tBu)]WKYCV-OH; disulfide 2-7) [listing 2 of 2 here] | – | – | 8.39 | – | -7.63 | – |
| CN[C@@H](CC(=O)O)C(=O)N[C@H]1CSSC[C@@H](C(=O)N[C@H](C(=O)O)C(C)C)NC(=O)[C@H](Cc2ccc(O)cc2)NC(=O)[C@H](CCCCN)NC(=O)[C@H](Cc2c[nH]c3ccccc23)NC(=O)[C@H](Cc2ccccc2)NC1=O (H-[NMeD]CFWKYCV-OH; disulfide 2-7) | 93.1% | inactive | 8.22 | 8.79 | – | – |
| CC(C)[C@H](NC(=O)[C@@H]1CSSC[C@H](NC(=O)[C@@H](N)CC(=O)O)C(=O)N[C@@H](CC2CCCCC2)C(=O)N[C@@H](Cc2c[nH]c3ccccc23)C(=O)N[C@@H](CCCCN)C(=O)N[C@@H](Cc2ccc(O)c(I)c2)C(=O)N1)C(=O)O (H-DC[Cha]WK[Tyr(3-I)]CV-OH; disulfide 2-7) | 82.1% | inactive | 6.45 | 7.71 | – | – |
